Reference: US11214803B2, “Modulators of YAP1 expression” (Ionis Pharmaceuticals, Inc., priority 2019, dated 2022)
Strand notation (5' to 3'): a small letter for the sugar, then the base; units joined by * are phosphorothioate-linked, units joined directly phosphodiester-linked; [ ] holds rarer units or linkages, { } end groups; capitals alone tell only the bases. k = constrained ethyl (cEt); [5mC] = 5-methylcytosine; d = 2'-deoxy (DNA)

tested on: Yap1 mRNA; assay: Antisense inhibition of human Yap1 in A-431 cells by cEt gapmers, single dose (Example 2, RTS4814); assay type: cell-based; details: A-431 cells, 5,000 cells per well, free uptake, 2,000 nM modified oligonucleotide, approx. 48 hours, RTS4814, normalized to RIBOGREEN; Table 4; asterisk (*) = targets amplicon region of primer probe set
In short: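 Read-out is Yap1 mRNA as percent of untreated cells, by real-time RT-PCR (probe set RTS4814) normalized to total RNA via RIBOGREEN. Cells were A-431 dosed with 2,000 nM gapmer without transfection for approximately 48 hours.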

Substance	YAP1 (% UTC)
716538 (antisense kT*k[5mC]*kT*dG*dA*dA*dA*d[5mC]*dT*d[5mC]*d[5mC]*dA*dA*kA*kT*k[5mC]) [Compound 716538]	77 % UTC
716412 (kG*kT*kA*dG*dT*d[5mC]*dT*dG*dG*dG*dA*dA*dA*k[5mC]*kG*kG; antisense) [Compound 716412]	41 % UTC
716466 (kG*kT*kG*dG*dA*dG*d[5mC]*dA*d[5mC]*dT*d[5mC]*d[5mC]*d[5mC]*k[5mC]*kT*kA; antisense) [Compound 716466]	58 % UTC
716487 (kA*k[5mC]*kA*d[5mC]*dA*dT*dA*d[5mC]*dT*d[5mC]*dT*dA*dG*kT*kT*kA; antisense) [Compound 716487]	64 % UTC
716541 (antisense kT*kA*kA*dA*dG*dG*d[5mC]*dA*d[5mC]*dT*dA*d[5mC]*dA*kT*kT*kT) [Compound 716541]	92 % UTC

same assay, conditions: Table 5; A-431 cells, 5,000 cells per well, free uptake, 2,000 nM modified oligonucleotide, approx. 48 hours; RTS4814; normalized to RIBOGREEN; Yap1 mRNA relative to untreated control cells

Substance	YAP1 (% UTC)
716440 (k[5mC]*kT*k[5mC]*dT*dT*d[5mC]*dA*dA*dA*dT*d[5mC]*dA*dG*k[5mC]*kA*kT; antisense) [Compound 716440]	45 % UTC
716404 (k[5mC]*kG*kT*d[5mC]*dA*dT*dT*dG*dT*dT*d[5mC]*dT*d[5mC]*kA*kA*kT; antisense) [Compound 716404]	63 % UTC
716425 (kG*k[5mC]*kA*dA*dT*dA*d[5mC]*dA*dT*dT*dA*dA*d[5mC]*kA*kG*k[5mC]; antisense) [Compound 716425]	71 % UTC
716368 (kG*kT*k[5mC]*dG*dG*dG*d[5mC]*dA*dG*d[5mC]*dT*dT*d[5mC]*k[5mC]*kG*kG; antisense) [Compound 716368]	86 % UTC

same assay, conditions: Table 6; A-431 cells, 5,000 cells per well, free uptake, 2,000 nM modified oligonucleotide, approx. 48 hours; RTS4814; normalized to RIBOGREEN; Yap1 mRNA relative to untreated control cells

Substance	YAP1 (% UTC)
716399 (kA*kA*kT*dT*dT*dG*d[5mC]*dT*dG*dT*dG*d[5mC]*dT*kG*kG*kG; antisense) [Compound 716399]	40 % UTC
716423 (kG*k[5mC]*kA*dA*dA*dA*dT*dA*dG*dA*dG*dG*dA*kT*kT*kA; antisense) [Compound 716423]	43 % UTC
716438 (kA*kT*kT*dT*dT*dT*dG*dG*d[5mC]*dT*dT*dG*dT*k[5mC]*kA*kG; antisense) [Compound 716438]	32 % UTC
716360 (k[5mC]*kT*kG*d[5mC]*d[5mC]*d[5mC]*dG*dG*dG*dA*dT*d[5mC]*d[5mC]*kA*kT*kG; antisense) [Compound 716360]	118 % UTC

same assay, conditions: Table 18; A-431 cells, 5,000 cells per well, free uptake, 2,000 nM modified oligonucleotide, approx. 48 hours; RTS4814; normalized to RIBOGREEN; Yap1 mRNA as percent of untreated control

Substance	YAP1 (% UTC)
1076036 (k[5mC]*kG*kT*dA*dA*dT*dT*dA*dG*dA*dA*dA*d[5mC]*kT*kT*kG; antisense) [Compound 1076036]	19 % UTC
1075172 (antisense k[5mC]*kT*kT*dT*dA*d[5mC]*dA*dT*dG*dA*dA*d[5mC]*dT*kG*kA*kT) [Compound 1075172]	14 % UTC
1074628 (antisense kG*k[5mC]*k[5mC]*dT*dG*dT*dT*dA*dT*dG*dA*dA*d[5mC]*k[5mC]*k[5mC]*kT) [Compound 1074628]	5 % UTC
1075300 (k[5mC]*kG*kT*dG*dA*dA*dA*dA*dG*dA*dA*dA*dG*kG*k[5mC]*k[5mC]; antisense) [Compound 1075300]	98 % UTC
1075012 (antisense k[5mC]*kT*kA*dT*dT*dG*dG*dA*dA*dT*dG*dT*dT*kA*kA*k[5mC]) [Compound 1075012]	119 % UTC
1074820 (kA*kA*kG*dT*dG*dT*dT*dA*dA*dG*d[5mC]*dA*d[5mC]*kT*kG*kA; antisense) [Compound 1074820]	85 % UTC

same assay, conditions: Table 19; A-431 cells, 5,000 cells per well, free uptake, 2,000 nM modified oligonucleotide, approx. 48 hours; RTS4814; normalized to RIBOGREEN; Yap1 mRNA as percent of untreated control

Substance	YAP1 (% UTC)
1075653 (k[5mC]*kA*kT*dA*dA*dA*d[5mC]*dT*d[5mC]*dT*dG*d[5mC]*dT*kG*kT*k[5mC]; antisense) [Compound 1075653]	58 % UTC
1074853 (antisense k[5mC]*kA*kA*dT*dT*dG*dT*dT*dA*dT*dG*dA*dT*kA*kG*kG) [Compound 1074853]	15 % UTC

same assay, conditions: Table 20; Yap1 mRNA, percent of untreated control; 3-10-3 cEt gapmers targeting SEQ ID NO.: 1 and 2

Substance	YAP1 (% UTC)
1074278 (antisense k[5mC]*kT*kT*dG*dG*dG*dT*d[5mC]*dT*dA*dG*d[5mC]*d[5mC]*kA*kA*kG) [Compound 1074278]	31 % UTC
1076006 (kT*kT*kT*dA*dA*dA*d[5mC]*d[5mC]*dT*dG*dA*dG*dA*k[5mC]*kT*k[5mC]; antisense) [Compound 1076006]	41 % UTC
1074214 (antisense kT*k[5mC]*k[5mC]*dG*dG*d[5mC]*dG*dG*d[5mC]*dT*dT*dG*dA*kA*kG*kA) [Compound 1074214]	89 % UTC

same assay, conditions: Table 21; Yap1 mRNA, percent of untreated control; 3-10-3 cEt gapmers targeting SEQ ID NO.: 1 and 2

Substance	YAP1 (% UTC)
1074695 (antisense k[5mC]*k[5mC]*k[5mC]*d[5mC]*d[5mC]*dT*dA*dA*dA*dT*d[5mC]*dT*dT*k[5mC]*kA*k[5mC]) [Compound 1074695]	49 % UTC
1074311 (antisense kT*kT*k[5mC]*d[5mC]*dG*d[5mC]*dA*dT*dT*dG*d[5mC]*d[5mC]*dT*kG*kT*kG) [Compound 1074311]	24 % UTC
1075943 (kG*kT*kA*dT*dA*dT*d[5mC]*dA*dA*dA*d[5mC]*d[5mC]*dT*kT*kT*kT; antisense) [Compound 1075943]	15 % UTC

same assay, conditions: Table 22; Yap1 mRNA as percent of untreated control; 3-10-3 cEt gapmers; single dose

Substance	YAP1 (% UTC)
1076200 (kG*kA*kT*dT*dA*d[5mC]*dA*d[5mC]*dT*dA*dT*d[5mC]*dA*kA*kA*kA; antisense) [Compound 1076200]	67 % UTC
1074792 (kA*kT*k[5mC]*dA*dA*dT*dG*dT*dG*d[5mC]*dT*d[5mC]*d[5mC]*kA*kT*k[5mC]; antisense) [Compound 1074792]	4 % UTC

same assay, conditions: Table 23; Yap1 mRNA as percent of untreated control; 3-10-3 cEt gapmers; single dose

Substance	YAP1 (% UTC)
1074729 (antisense kA*k[5mC]*kA*d[5mC]*dT*dG*dA*dG*dG*dT*dA*dT*dA*kA*k[5mC]*kT) [Compound 1074729]	9 % UTC
1074345 (antisense kT*k[5mC]*kT*dG*dA*dG*d[5mC]*dT*dA*dT*dT*dG*dG*kT*k[5mC]*kG) [Compound 1074345]	8 % UTC

same assay, conditions: Table 24; Yap1 mRNA as percent of untreated control; 3-10-3 cEt gapmers targeting SEQ ID NO.: 1, and 2

Substance	YAP1 (% UTC)
1075786 (k[5mC]*kT*kA*dT*dA*dT*dT*dG*dA*dT*dT*d[5mC]*d[5mC]*kA*kG*kA; antisense) [Compound 1075786]	19 % UTC
1074858 (antisense kA*kA*k[5mC]*dA*dT*dT*dG*dG*dT*dA*d[5mC]*dT*dA*kT*kA*kT) [Compound 1074858]	23 % UTC
1074122 (antisense k[5mC]*kT*kG*d[5mC]*dG*dA*dG*dG*d[5mC]*dA*d[5mC]*dT*d[5mC]*kG*kG*kA) [Compound 1074122]	73 % UTC

same assay, conditions: Table 25; Yap1 mRNA as percent of untreated control; 3-10-3 cEt gapmers targeting SEQ ID NO.: 1, and 2

Substance	YAP1 (% UTC)
1076523 (antisense kA*kT*kT*dT*dA*dT*dA*dT*d[5mC]*dA*dG*dG*dT*k[5mC]*kA*kA) [Compound 1076523]	5 % UTC

same assay, conditions: Table 32; Yap1 mRNA, percent of untreated control; 3-10-3 cEt gapmers targeting SEQ ID NO.: 1, and 2

Substance	YAP1 (% UTC)
1074514 (kA*kA*kG*dG*dA*dT*dA*d[5mC]*dA*dT*dT*d[5mC]*d[5mC]*kA*k[5mC]*kT; antisense) [compound 1074514]	25 % UTC

same assay, conditions: Table 33; Yap1 mRNA, percent of untreated control; 3-10-3 cEt gapmers targeting SEQ ID NO.: 1, and 2

Substance	YAP1 (% UTC)
1075475 (kT*kA*kG*d[5mC]*dA*dA*d[5mC]*dA*d[5mC]*dA*dT*dG*dA*kA*kG*kA; antisense) [compound 1075475]	64 % UTC
1074643 (antisense kT*kT*kG*dA*dA*dG*dG*dG*d[5mC]*d[5mC]*dA*dA*dA*kA*kT*kA) [compound 1074643]	68 % UTC
1076243 (kA*kT*kA*dT*dT*d[5mC]*dG*dA*dT*dG*dT*dA*dA*k[5mC]*kT*kT; antisense) [compound 1076243]	41 % UTC

same assay, conditions: Yap1 mRNA as percent of untreated control; A-431 cells; 3-10-3 cEt gapmers targeting SEQ ID NO.: 1, and 2; Table 30

Substance	YAP1 (% UTC)
1076400 (antisense kG*kT*kT*dA*dA*dA*dA*dG*d[5mC]*d[5mC]*dG*dT*dG*kA*kA*kA) [compound 1076400]	10 % UTC
1074832 (kG*k[5mC]*kG*dA*dG*dG*dA*dT*dA*dA*dA*dA*dT*k[5mC]*k[5mC]*kA; antisense) [compound 1074832]	17 % UTC
1074864 (k[5mC]*kA*kT*dA*dT*dG*dA*dG*d[5mC]*dA*dT*dG*d[5mC]*kT*k[5mC]*kT; antisense) [compound 1074864]	47 % UTC
1074128 (k[5mC]*kT*k[5mC]*d[5mC]*dA*d[5mC]*dT*dG*dG*dT*d[5mC]*dT*dG*kG*k[5mC]*kG; antisense) [compound 1074128]	76 % UTC
